{
  "source": "patent US8993714B2",
  "about": "“Streptavidin macromolecular adaptor and complexes thereof” (Imiplex LLC, priority 2007, dated 2015)",
  "key": {"streptavidin [1]": {"target": "T1, streptavidin (Streptomyces avidinii, UniProt P22629)", "T1 sequence (P22629 25-183)": "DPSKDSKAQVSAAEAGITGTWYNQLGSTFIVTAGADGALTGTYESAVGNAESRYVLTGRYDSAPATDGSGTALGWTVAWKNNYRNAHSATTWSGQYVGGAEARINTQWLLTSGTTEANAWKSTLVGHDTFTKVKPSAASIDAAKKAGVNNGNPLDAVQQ", "assay": "Ligand binding to the streptavidin biotin binding site (dissociation constant)", "from_the_text": "A strut can be formed from streptavidin (FIG. 1), a tetrameric protein of 60 kiloDalton molecular weight secreted by the bacterium Streptomyces avidinii. […] Part d designates two of the four bound biotins on the same “side” of the tetramer in space filling representation. Part e is a representation of the streptavidin tetramer surface showing overall molecular shape.\nFor example, the first and/or the second moiety can be an iminobiotin group. […] However, at pH values of less than or equal to about 4, the imino group on iminobiotin becomes charged, so that it is displaced from the streptavidin binding site. Thus, a structure can be temporarily formed using an iminobiotin-functionalized crosslinking reagent. […] Then, by lowering the pH below 4, the iminobiotin bonds can release, and components of the temporary structure can be washed away. Thus, a bifunctional crosslinking reagent with an iminobiotin group as the first and/or second moiety can be used to form a temporary scaffold, which assists in the construction of a permanent nanostructure.\nMore generally, the dyes can be used to monitor the assembly of streptavidin-linked nanostructures.\nMALDI or ESI MS can be used to characterize the species. […] FIGS. 34c and 34d show the structures of the 1:1 and 1:2 Azido-ATP-linked SAV:SAMA complexes. Spectroscopic methods can be used to monitor SAV:SAMA complex formation using a dye displacement approach and using DLS alone or combined with static light scattering."}, "streptavidin [2]": {"target": "T1, streptavidin", "conditions": "neutral pH; read-out: iminobiotin dissociation constant; cited from earlier work"}, "[3]": {"assay": "Stability on 4-12% Bis-TRIS MOPS SDS PAGE after heating at 70° C. with reducing agent and SDS", "format": "physicochemical", "conditions": "70° C. for 10 minutes with reducing agent and SDS", "description": "We established optimal conditions for complex formation. One issue involved the existence of stable dimeric, trimeric and higher aggregates of streptavidin in most preparations (Sano & Cantor 1990b; Kurzban et al. 1991; Waner et al. 2004). We found the aggregates of liganded and unliganded streptavidin stable to heating at 70° C. and the liganded streptavidin aggregates also stable in SDS PAGE running buffers (FIG. 33). We exploited these features in a gel assay to help assess complexation in both denaturing and native gels (see FIG. 33). The left and middle panels of FIG. 33 show complexes of SAMA and streptavidin analyzed on 4-12% Bis-TRIS gels with 3-(N-Morpholino)propanesulfonic acid (MOPS) SDS running buffer. […] Prior to loading, samples were heated at 70° C. for 10 minutes together with reducing agent and SDS. Lanes are numbered on the top and the sample identity (SAMA and linking reagent) given below. Mark12 MW standards (Invitrogen) are in Lane 1. […] Schematics on the left indicate the electrophoretic mobilities of control molecules including the streptavidin monomer, derivatized and underivatized SAMA monomers, the streptavidin:biotin tetramer and higher order aggregates of the streptavidin:biotin tetramer. Brackets and schematics on the right indicate probable electrophoretic mobilities of SAMA:SAV complexes. […]"}},
  "data": [
    {"molecule": "O=C(O)c1ccccc1N=Nc1ccc(O)cc1", "note": "[HABA, 4′-hydroxyazobenzene-2-carboxylic acid]", "values": [
      {"measurement": "binds more weakly to streptavidin than biotin", "setting": "streptavidin [1]", "value": "8 orders of magnitude"},
      {"measurement": "binds more weakly to streptavidin than iminobiotin", "setting": "streptavidin [1]", "value": "5 orders of magnitude"}
    ]},
    {"molecule": "N=C1N[C@H]2[C@H](CS[C@H]2CCCCC(=O)O)N1", "note": "[iminobiotin]", "values": [
      {"measurement": "Kd", "setting": "streptavidin [2]", "value": "~0.01", "unit": "nM"},
      {"measurement": "iminobiotin dissociation constant relative to biotin-streptavidin dissociation constant, orders of magnitude greater", "setting": "streptavidin [1]", "value": "3 orders of magnitude"}
    ]},
    {"molecule": "streptavidin: tetrameric protein of 60 kiloDalton secreted by Streptomyces avidinii with 4 biotin binding sites", "values": [
      {"measurement": "folded state under gel conditions", "setting": "[3]", "value": "denatured"}
    ]}
  ]
}
